Values quoted from earlier work as cited in patent US8053446B2, “Cyanoguanidine compounds” (Leo Pharma A/S, priority 2004, dated 2011).

How the values were obtained:
human tumour cells = settings: nude mice transplanted with human tumour cells; also against tumour cells resistant to conventional anticancer drugs such as paclitaxel
[1] = tested on: normal human endothelial cells

**Q.** With N#CNC(=Nc1ccncc1)NCCCCCCOc1ccc(Cl)cc1 [N-(6-(4-chlorophenoxy)hexyl)-N′-cyano-N″-(4-pyridyl)guanidine] as the compound, how does the antitumour activity (human tumour cells) read?
**A.** substantial antitumour activity

**Q.** And the antiproliferative activity [1]?
**A.** considerably less antiproliferative activity
